Laboratory results: ChEMBL document CHEMBL1201861, “Genomics of Drug Sensitity in Cancer screening data, Wellcome Trust Sanger Institute”

What was measured:
Test in all cases: cells
[1] = tested on: T47D; assay type: functional, cell-based, Homo sapiens; conditions: Homo sapiens, T47D;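 note: growth inhibition of human T47D cells, measured with a cell viability assay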
Description: SANGER: Inhibition of human T47D cell growth in a cell viability assay.

[2] = tested on: GB-1; assay type: functional, cell-based, Homo sapiens; conditions: Homo sapiens, GB-1;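 note: growth of GB-1 cells judged by a viability assay, IC50 marks the concentration inhibiting growth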
Description: SANGER: Inhibition of human GB-1 cell growth in a cell viability assay.

[3] = tested on: DMS-114; assay type: functional, cell-based, Homo sapiens; conditions: Homo sapiens, DMS-114
[4] = tested on: RCC10RGB; assay type: functional, cell-based, Homo sapiens; conditions: Homo sapiens, RCC10RGB;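 note: growth inhibition of human RCC10RGB cells, read out by a cell viability assay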
Description: SANGER: Inhibition of human RCC10RGB cell growth in a cell viability assay.

[5] = tested on: SW684; assay type: functional, cell-based, Homo sapiens; conditions: Homo sapiens, SW684;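 note: growth inhibition of human SW684 cells, measured by a cell viability assay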
Description: SANGER: Inhibition of human SW684 cell growth in a cell viability assay.

[6] = tested on: NCI-H2342; assay type: functional, cell-based; conditions: Homo sapiens;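 note: growth inhibition of the cancer cell line, determined with a cell viability assay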
Description: SANGER: Inhibition of human NCI-H2342 cell growth in a cell viability assay.

[7] = tested on: NCI-H1299; assay type: functional, cell-based, Homo sapiens; conditions: Homo sapiens, NCI-H1299;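 note: growth inhibition of human NCI-H1299 cells, read out by a cell viability assay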
Description: SANGER: Inhibition of human NCI-H1299 cell growth in a cell viability assay.

[8] = tested on: NOS-1; assay type: functional, cell-based, Homo sapiens; conditions: Homo sapiens, NOS-1;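 note: growth inhibition of the human NOS-1 cell line, read out with a cell viability assay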
Description: SANGER: Inhibition of human NOS-1 cell growth in a cell viability assay.

[9] = tested on: HSC-2; assay type: functional, cell-based, Homo sapiens; conditions: Homo sapiens, HSC-2;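 note: growth inhibition of human HSC-2 cells, read out by a cell viability assay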
Description: SANGER: Inhibition of human HSC-2 cell growth in a cell viability assay.

[10] = tested on: LB1047-RCC; assay type: functional, cell-based, Homo sapiens; conditions: Homo sapiens, LB1047-RCC;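 note: inhibition of cell growth, determined with a cell viability assay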
Description: SANGER: Inhibition of human LB1047-RCC cell growth in a cell viability assay.

[11] = tested on: UACC-893; assay type: functional, cell-based, Homo sapiens; conditions: Homo sapiens, UACC-893
Description: SANGER: Inhibition of human UACC-893 cell growth in a cell viability assay.

[12] = tested on: SW1783; assay type: functional, cell-based; conditions: Homo sapiens;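 note: cell growth inhibition measured with a viability assay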
Description: SANGER: Inhibition of human SW1783 cell growth in a cell viability assay.

[13] = tested on: MLMA; assay type: functional, cell-based, Homo sapiens; conditions: Homo sapiens, MLMA;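 note: growth inhibition of MLMA cells (human), determined through a cell viability readout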
Description: SANGER: Inhibition of human MLMA cell growth in a cell viability assay.

[14] = tested on: SNB-75; assay type: functional, cell-based, Homo sapiens; conditions: Homo sapiens, SNB-75;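 note: cell viability assay measuring growth inhibition of human SNB-75 cells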
Description: SANGER: Inhibition of human SNB75 cell growth in a cell viability assay.

[15] = tested on: COLO-824; assay type: functional, cell-based, Homo sapiens; conditions: Homo sapiens, COLO-824
Description: SANGER: Inhibition of human COLO-824 cell growth in a cell viability assay.

[16] = tested on: GP5d; assay type: functional, cell-based, Homo sapiens; conditions: Homo sapiens, GP5d;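 note: growth inhibition of human GP5d cells, read out with a cell viability assay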
Description: SANGER: Inhibition of human GP5d cell growth in a cell viability assay.

[17] = tested on: KYSE-510; assay type: functional, cell-based, Homo sapiens; conditions: Homo sapiens, KYSE-510;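 note: cell viability readout used to measure how strongly growth of the cell line is suppressed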
Description: SANGER: Inhibition of human KYSE-510 cell growth in a cell viability assay.

[18] = tested on: NCI-H2170; assay type: functional, cell-based, Homo sapiens; conditions: Homo sapiens, NCI-H2170;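 note: cell viability assay measuring growth inhibition of human NCI-H2170 cancer cells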
Description: SANGER: Inhibition of human NCI-H2170 cell growth in a cell viability assay.

[19] = tested on: MS-1; assay type: functional, cell-based; conditions: Homo sapiens;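 note: growth inhibition of MS-1 cells, read out by cell viability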
Description: SANGER: Inhibition of human MS-1 cell growth in a cell viability assay.

[20] = tested on: AU565; assay type: functional, cell-based, Homo sapiens; conditions: Homo sapiens, AU565;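 note: cell viability assay measuring growth inhibition of human AU565 cells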
Description: SANGER: Inhibition of human AU565 cell growth in a cell viability assay.

[21] = tested on: HSC-3; assay type: functional, cell-based, Homo sapiens; conditions: Homo sapiens, HSC-3
Description: SANGER: Inhibition of human HSC-3 cell growth in a cell viability assay.

[22] = tested on: EW-16; assay type: functional, cell-based, Homo sapiens; conditions: Homo sapiens, EW-16;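 note: growth inhibition of human EW-16 cells, read out as cell viability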
Description: SANGER: Inhibition of human EW-16 cell growth in a cell viability assay.

[23] = tested on: NB13; assay type: functional, cell-based, Homo sapiens; conditions: Homo sapiens, NB13;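 note: cell viability readout measuring growth inhibition of human NB13 cells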
Description: SANGER: Inhibition of human NB13 cell growth in a cell viability assay.

[24] = tested on: GAMG; assay type: functional, cell-based, Homo sapiens; conditions: Homo sapiens, GAMG;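 note: cell growth inhibition measured by a viability assay in the GAMG human cell line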
Description: SANGER: Inhibition of human GAMG cell growth in a cell viability assay.

[25] = tested on: NCI-H226; assay type: functional, cell-based, Homo sapiens; conditions: Homo sapiens, NCI-H226;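 note: cell viability read-out used to gauge growth inhibition of the cells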
Description: SANGER: Inhibition of human NCI-H226 cell growth in a cell viability assay.

[26] = tested on: NCI-H727; assay type: functional, cell-based, Homo sapiens; conditions: Homo sapiens, NCI-H727;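 note: growth inhibition of human NCI-H727 cells, read out with a cell viability assay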
Description: SANGER: Inhibition of human NCI-H727 cell growth in a cell viability assay.

[27] = tested on: A388; assay type: functional, cell-based, Homo sapiens; conditions: Homo sapiens, A388;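 note: growth inhibition of human A388 cells, read out with a cell viability assay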
Description: SANGER: Inhibition of human A388 cell growth in a cell viability assay.

[28] = tested on: NB6; assay type: functional, cell-based, Homo sapiens; conditions: Homo sapiens, NB6;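 note: growth inhibition of NB6 cells, read out by a cell viability assay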
Description: SANGER: Inhibition of human NB6 cell growth in a cell viability assay.

[29] = tested on: NCI-H2030; assay type: functional, cell-based, Homo sapiens; conditions: Homo sapiens, NCI-H2030;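 note: growth inhibition of human NCI-H2030 cells, read out by a cell viability assay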
Description: SANGER: Inhibition of human NCI-H2030 cell growth in a cell viability assay.

[30] = tested on: C8166; assay type: functional, cell-based; conditions: Homo sapiens;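 note: growth inhibition of human C8166 cells measured by a cell viability assay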
Description: SANGER: Inhibition of human C8166 cell growth in a cell viability assay.

[31] = tested on: NCI-H1993; assay type: functional, cell-based, Homo sapiens; conditions: Homo sapiens, NCI-H1993;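 note: growth inhibition of the cancer cell line, assessed with a cell viability assay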
Description: SANGER: Inhibition of human NCI-H1993 cell growth in a cell viability assay.

[32] = tested on: 769-P; assay type: functional, cell-based, Homo sapiens; conditions: Homo sapiens, 769-P
Description: SANGER: Inhibition of human 769-P cell growth in a cell viability assay.

[33] = tested on: UMC-11; assay type: functional, cell-based, Homo sapiens; conditions: Homo sapiens, UMC-11;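 note: growth inhibition of UMC-11 cells, read out with a cell viability assay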
Description: SANGER: Inhibition of human UMC-11 cell growth in a cell viability assay.

[34] = tested on: EFM-19; assay type: functional, cell-based, Homo sapiens; conditions: Homo sapiens, EFM-19;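 note: growth inhibition of human EFM-19 cells, measured in a cell viability assay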
Description: SANGER: Inhibition of human EFM-19 cell growth in a cell viability assay.

[35] = tested on: RO82-W-1; assay type: functional, cell-based, Homo sapiens; conditions: Homo sapiens, RO82-W-1;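 note: growth inhibition of human RO82-W-1 cells, measured with a cell viability assay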
Description: SANGER: Inhibition of human RO82-W-1 cell growth in a cell viability assay.

[36] = tested on: A101D; assay type: functional, cell-based, Homo sapiens; conditions: Homo sapiens, A101D;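 note: growth inhibition of the cell line, measured with a viability assay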
Description: SANGER: Inhibition of human A101D cell growth in a cell viability assay.

[37] = tested on: A-375; assay type: functional, cell-based, Homo sapiens; conditions: Homo sapiens, A-375;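 note: growth inhibition of A375 cells, read out with a cell viability assay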
Description: SANGER: Inhibition of human A375 cell growth in a cell viability assay.

[38] = tested on: A253 cell line; assay type: functional, cell-based, Homo sapiens; conditions: Homo sapiens, A253;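 note: growth inhibition of A253 cells, read out with a cell viability assay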
Description: SANGER: Inhibition of human A253 cell growth in a cell viability assay.

[39] = tested on: JVM-2; assay type: functional, cell-based; conditions: Homo sapiens;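 note: growth inhibition of JVM-2 cells determined by a cell viability assay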
Description: SANGER: Inhibition of human JVM-2 cell growth in a cell viability assay.

[40] = tested on: SW1710; assay type: functional, cell-based, Homo sapiens; conditions: Homo sapiens, SW1710;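 note: growth inhibition of SW1710 cells, determined with a cell viability assay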
Description: SANGER: Inhibition of human SW1710 cell growth in a cell viability assay.

[41] = tested on: IGR-1; assay type: functional, cell-based, Homo sapiens; conditions: Homo sapiens, IGR-1;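 note: growth inhibition of human IGR-1 cells, read out with a cell viability assay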
Description: SANGER: Inhibition of human IGR-1 cell growth in a cell viability assay.

[42] = tested on: D-247MG; assay type: functional, cell-based, Homo sapiens; conditions: Homo sapiens, D-247MG
Description: SANGER: Inhibition of human D-247MG cell growth in a cell viability assay.

[43] = tested on: SK-LU-1; assay type: functional, cell-based, Homo sapiens; conditions: Homo sapiens, SK-LU-1;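 note: cell viability assay measuring growth inhibition of human SK-LU-1 cells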
Description: SANGER: Inhibition of human SK-LU-1 cell growth in a cell viability assay.

[44] = tested on: LS-411N; assay type: functional, cell-based, Homo sapiens; conditions: Homo sapiens, LS-411N
[45] = tested on: MeWo; assay type: functional, cell-based, Homo sapiens; conditions: Homo sapiens, MeWo;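 note: growth inhibition of MeWo cells, determined by a cell viability readout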
Description: SANGER: Inhibition of human Mewo cell growth in a cell viability assay.

[46] = tested on: M059J; assay type: functional, cell-based, Homo sapiens; conditions: Homo sapiens, M059J;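 note: growth inhibition of M059J cells, read out with a cell viability assay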
Description: SANGER: Inhibition of human M059J cell growth in a cell viability assay.

[47] = tested on: NCI-H2452; assay type: functional, cell-based, Homo sapiens; conditions: Homo sapiens, NCI-H2452;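 note: growth inhibition of NCI-H2452 cells, read out with a cell viability assay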
Description: SANGER: Inhibition of human NCI-H2452 cell growth in a cell viability assay.

[48] = tested on: HT-1376; assay type: functional, cell-based, Homo sapiens; conditions: Homo sapiens, HT-1376
Description: SANGER: Inhibition of human HT-1376 cell growth in a cell viability assay.

[49] = tested on: KYSE-180; assay type: functional, cell-based, Homo sapiens; conditions: Homo sapiens, KYSE-180;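 note: growth inhibition of KYSE-180 cells, read out with a cell viability assay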
Description: SANGER: Inhibition of human KYSE-180 cell growth in a cell viability assay.

[50] = tested on: MHH-ES-1; assay type: functional, cell-based, Homo sapiens; conditions: Homo sapiens, MHH-ES-1;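 note: cell growth inhibition measured by a cell viability assay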
Description: SANGER: Inhibition of human MHH-ES-1 cell growth in a cell viability assay.

C=CCNC1=C2C[C@@H](C)C[C@H](OC)[C@H](O)[C@@H](C)/C=C(\C)[C@H](OC(N)=O)[C@@H](OC)/C=C\C=C(/C)C(=O)NC(=CC1=O)C2=O [TANESPIMYCIN]
IC50 [1]: > 1 µM | IC50 [2]: > 1 µM | IC50 [3]: > 1 µM | IC50 [4]: > 1 µM | IC50 [5]: 0.0659 µM | IC50 [6]: > 1 µM | IC50 [7]: 0.163 µM | IC50 [8]: 0.975 µM | IC50 [9]: 0.341 µM | IC50 [10]: 0.053 µM | IC50 [11]: 0.637 µM | IC50 [12]: 0.34 µM | IC50 [13]: > 1 µM | IC50 [14]: 0.122 µM | IC50 [15]: 0.173 µM | IC50 [16]: 0.141 µM | IC50 [17]: 0.0465 µM | IC50 [18]: 0.175 µM | IC50 [19]: > 1 µM | IC50 [20]: > 1 µM | IC50 [21]: 0.00929 µM | IC50 [22]: > 1 µM | IC50 [23]: 0.368 µM | IC50 [24]: 0.0343 µM | IC50 [25]: > 1 µM | IC50 [26]: > 1 µM | IC50 [27]: 0.765 µM | IC50 [28]: > 1 µM | IC50 [29]: 0.0541 µM | IC50 [30]: > 1 µM | IC50 [31]: > 1 µM | IC50 [32]: 0.213 µM | IC50 [33]: 0.552 µM | IC50 [34]: 0.737 µM | IC50 [35]: 0.397 µM | IC50 [36]: 0.481 µM | IC50 [37]: 0.128 µM | IC50 [38]: > 1 µM | IC50 [39]: > 1 µM | IC50 [40]: 0.295 µM | IC50 [41]: 0.79 µM | IC50 [42]: 0.0945 µM | IC50 [43]: 0.0308 µM | IC50 [44]: 0.465 µM | IC50 [45]: 0.149 µM | IC50 [46]: 0.0903 µM | IC50 [47]: 0.14 µM | IC50 [48]: 0.169 µM | IC50 [49]: 0.0926 µM | IC50 [50]: 0.237 µM

COc1cc(F)c(F)c(Nc2ccc(I)cc2F)c1NS(=O)(=O)C1(CC(O)CO)CC1 (stereo not given)
IC50 [1]: > 5 µM | IC50 [2]: 3.6 µM | IC50 [3]: > 5 µM | IC50 [4]: > 5 µM | IC50 [5]: > 5 µM | IC50 [6]: > 5 µM | IC50 [7]: > 5 µM | IC50 [8]: > 5 µM | IC50 [9]: > 5 µM | IC50 [10]: 1.09 µM | IC50 [11]: > 5 µM | IC50 [12]: > 5 µM | IC50 [13]: > 5 µM | IC50 [14]: > 5 µM | IC50 [15]: > 5 µM | IC50 [16]: > 5 µM | IC50 [17]: > 5 µM | IC50 [18]: > 5 µM | IC50 [19]: > 5 µM | IC50 [20]: > 5 µM | IC50 [21]: 0.307 µM | IC50 [22]: > 5 µM | IC50 [23]: > 5 µM | IC50 [24]: > 5 µM | IC50 [25]: > 5 µM | IC50 [26]: > 5 µM | IC50 [27]: > 5 µM | IC50 [28]: > 5 µM | IC50 [29]: > 5 µM | IC50 [30]: > 5 µM | IC50 [31]: > 5 µM | IC50 [32]: > 5 µM | IC50 [33]: > 5 µM | IC50 [34]: > 5 µM | IC50 [35]: > 5 µM | IC50 [36]: 0.0512 µM | IC50 [37]: 0.12 µM | IC50 [38]: 3.32 µM | IC50 [39]: > 5 µM | IC50 [40]: 2.02 µM | IC50 [41]: > 5 µM | IC50 [42]: > 5 µM | IC50 [43]: > 5 µM | IC50 [44]: 0.403 µM | IC50 [45]: 0.753 µM | IC50 [46]: > 5 µM | IC50 [47]: > 5 µM | IC50 [48]: > 5 µM | IC50 [49]: > 5 µM | IC50 [50]: > 5 µM

COC(=O)CNC(=O)C(=O)OC
IC50 [1]: > 4000 µM | IC50 [2]: 94 µM | IC50 [3]: > 4000 µM | IC50 [4]: 1040 µM | IC50 [5]: 2470 µM | IC50 [6]: 104 µM | IC50 [7]: 2150 µM | IC50 [8]: 772 µM | IC50 [9]: 504 µM | IC50 [10]: 50 µM | IC50 [11]: > 4000 µM | IC50 [12]: 156 µM | IC50 [13]: 46.3 µM | IC50 [14]: 438 µM | IC50 [15]: 2400 µM | IC50 [16]: 636 µM | IC50 [17]: 112 µM | IC50 [18]: > 4000 µM | IC50 [19]: 878 µM | IC50 [20]: > 4000 µM | IC50 [21]: 618 µM | IC50 [22]: 377 µM | IC50 [23]: 659 µM | IC50 [24]: 1380 µM | IC50 [25]: > 4000 µM | IC50 [26]: > 4000 µM | IC50 [27]: 2460 µM | IC50 [28]: 1920 µM | IC50 [29]: 105 µM | IC50 [30]: 1040 µM | IC50 [31]: 331 µM | IC50 [32]: > 4000 µM | IC50 [33]: 147 µM | IC50 [34]: 1080 µM | IC50 [35]: > 4000 µM | IC50 [36]: 163 µM | IC50 [37]: 176 µM | IC50 [38]: 232 µM | IC50 [39]: > 4000 µM | IC50 [40]: 277 µM | IC50 [41]: 1650 µM | IC50 [42]: 2410 µM | IC50 [43]: 66 µM | IC50 [44]: > 4000 µM | IC50 [45]: 230 µM | IC50 [46]: 541 µM | IC50 [47]: 966 µM | IC50 [48]: 389 µM | IC50 [49]: > 4000 µM | IC50 [50]: 115 µM

COc1ccc(-c2ccc3c(N4CCOC[C@@H]4C)nc(N4CCOC[C@@H]4C)nc3n2)cc1CO [AZD-8055]
IC50 [1]: 0.275 µM | IC50 [2]: > 2 µM | IC50 [3]: 0.937 µM | IC50 [4]: > 2 µM | IC50 [5]: 1.97 µM | IC50 [6]: > 2 µM | IC50 [7]: 1.5 µM | IC50 [8]: 0.411 µM | IC50 [9]: 1.91 µM | IC50 [10]: 0.34 µM | IC50 [11]: 0.929 µM | IC50 [12]: > 2 µM | IC50 [13]: > 2 µM | IC50 [14]: 1.75 µM | IC50 [15]: > 2 µM | IC50 [16]: > 2 µM | IC50 [17]: > 2 µM | IC50 [18]: > 2 µM | IC50 [19]: > 2 µM | IC50 [20]: > 2 µM | IC50 [21]: 0.429 µM | IC50 [22]: 1.44 µM | IC50 [23]: 1.14 µM | IC50 [24]: 0.557 µM | IC50 [25]: > 2 µM | IC50 [26]: > 2 µM | IC50 [27]: > 2 µM | IC50 [28]: > 2 µM | IC50 [29]: 1.24 µM | IC50 [30]: > 2 µM | IC50 [31]: > 2 µM | IC50 [32]: > 2 µM | IC50 [33]: > 2 µM | IC50 [34]: 0.708 µM | IC50 [35]: 1.52 µM | IC50 [36]: 0.49 µM | IC50 [37]: 0.752 µM | IC50 [38]: > 2 µM | IC50 [39]: > 2 µM | IC50 [40]: 0.632 µM | IC50 [41]: > 2 µM | IC50 [42]: > 2 µM | IC50 [43]: 0.392 µM | IC50 [44]: 1.15 µM | IC50 [45]: 1.09 µM | IC50 [46]: > 2 µM | IC50 [47]: 0.619 µM | IC50 [48]: > 2 µM | IC50 [49]: 1.11 µM | IC50 [50]: 0.835 µM
